Experiment [1] relates to JAK1/TYK2 pSTAT5 (Tyr694/699) in THP-1 cell line. In words: IFNa-stimulated JAK1/TYK2 pSTAT5 (Tyr694/699) inhibition cellular assay, AlphaLISA. It is filed as cell-based. As to conditions: THP-1 cells, AlphaLISA (Assay B), read-out: Cellular_THP1_IFNa-pSTATS_TYK2. In a few lines: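 THP-1 cells (2e4/well in HBSS) were preincubated with compound (8 points, 6-fold steps from 10000 nM final) for 1 h at 37 °C, then stimulated with IFNa (added at 100 ng/mL) for 30 min. Lysate pSTAT5 was read by AlphaLISA at 615 nm. IC50 came from a 4-parameter fit with bottom 0 and Hill −1.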

The next experiment concerns the target T1, TYK2 JH2 (Homo sapiens, UniProt P29597).
T1 construct: purchased DiscoverX (KINOMEscan KdELECT service); host or cells: E. coli BL21-derived (T7 phage display) or HEK-293
In words: TYK2 JH2 binding assay (KINOMEscan KdELECT competitive binding). The conditions noted are these: TYK2 JH2 domain, read-out: Biochemical TYK2_DiscoverX_JH2_BND_Kd. The method in brief: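 Competition binding, KdELECT format. Kinase (phage-tagged, E. coli BL21-derived host; or HEK-293, DNA-tagged) + ligand-coated streptavidin beads + cpd, 1 h RT, final DMSO 0.9%. Wash, elute 30 min with 0.5 μM non-biotinylated ligand; qPCR readout. Kd: 11-pt, 3-fold series.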

The mark [2] stands for this setting: DiscoverX KINOMEscan KdELECT (Assay A).

Where a name gives a salt, the structure may show the parent alone. Read-outs that look alike come from different tables or passages of the source. Bounds are passed on as bounds.

T1 sequence (P29597 589-875 limits assumed): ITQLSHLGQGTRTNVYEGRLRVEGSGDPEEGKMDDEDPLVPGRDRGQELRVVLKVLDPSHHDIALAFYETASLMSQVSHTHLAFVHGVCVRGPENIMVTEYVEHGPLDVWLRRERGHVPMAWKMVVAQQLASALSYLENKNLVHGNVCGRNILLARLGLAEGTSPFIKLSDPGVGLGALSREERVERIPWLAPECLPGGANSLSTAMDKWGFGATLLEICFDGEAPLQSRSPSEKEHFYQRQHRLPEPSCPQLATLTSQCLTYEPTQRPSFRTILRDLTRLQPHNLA

As for `[2H]C([2H])([2H])Nc1ncc(-c2nc3ccc(N4CCO[C@@H](C)C4)cn3n2)c2cc(NC(=O)[C@H]3C[C@H]3C(F)F)ncc12` (single isomer, unassigned) [Example 574], the IC50 in experiment [1] (Homo sapiens, IFNa-stimulated) was at most 500 nM. Also, the Kd on TYK2 JH2 (setting [2]) was at most 100 nM.
Regarding `CC[C@H]1C[C@@H]1C(=O)Nc1cc2c(-c3nc4ccc(N5CCOCC5)cn4n3)cnc(NC)c2cn1` (single isomer, unassigned) [Example 585], the IC50 in experiment [1] (Homo sapiens, IFNa-stimulated) is at most 500 nM. In addition, the Kd on TYK2 JH2 (setting [2]) was at most 100 nM.
Take `CC[C@@H]1C[C@H]1C(=O)Nc1cc2c(-c3nc4ccc(N5CCOCC5)cn4n3)cnc(NC)c2cn1` (single isomer, unassigned) [Example 586]: in experiment [1] (Homo sapiens, IFNa-stimulated), the IC50 is at most 500 nM. Besides, at TYK2 JH2 (setting [2]), the Kd was at most 100 nM.
The corresponding values for `CNc1ncc(-c2nc3ccc(N4CCOCC4)cn3n2)c2cc(NC(=O)[C@@H]3CC34CC4)ncc12` (single isomer, unassigned) [Example 587, formate] are at most 500 nM and at most 100 nM.
In the case of `CNc1ncc(-c2nc3ccc(N4CCOCC4)cn3n2)c2cc(NC(=O)[C@H]3CC34CC4)ncc12` (single isomer, unassigned) [Example 588, formate], the IC50 in experiment [1] (Homo sapiens, IFNa-stimulated) is at most 500 nM. The Kd at TYK2 JH2 (setting [2]) is at most 100 nM.
Turning to `CNc1ncc(C#Cc2ccc3c(c2)OC[C@H](COC)O3)c2cc(NC(=O)C3CC3)ncc12` (single isomer, unassigned) [Example 698], in experiment [1] (Homo sapiens, IFNa-stimulated), the IC50 was at most 500 nM. The Kd at TYK2 JH2 (KINOMEscan KdELECT (Assay A)) was at most 100 nM.
Regarding `CNc1ncc(C#Cc2ccc3c(c2)OC[C@@H](COC)O3)c2cc(NC(=O)C3CC3)ncc12` (single isomer, unassigned) [Example 699], the IC50 in experiment [1] (Homo sapiens, IFNa-stimulated) is at most 500 nM. Moreover, the Kd on TYK2 JH2 (KINOMEscan KdELECT (Assay A)) is at most 100 nM.
On to `CNc1ncc(C#Cc2ccc(OC)cn2)c2cc(NC(=O)[C@H]3C[C@H]3C(F)F)ncc12` (single isomer, unassigned) [Example 745], for which the IC50 in experiment [1] (Homo sapiens, IFNa-stimulated) was at most 500 nM. Moreover, at TYK2 JH2 (KINOMEscan KdELECT (Assay A)), the Kd was at most 100 nM.
For `CNc1ncc(C#Cc2ccc(OC)cn2)c2cc(NC(=O)[C@@H]3C[C@@H]3C(F)(F)F)ncc12` (single isomer, unassigned) [Example 746], in experiment [1] (Homo sapiens, IFNa-stimulated), the IC50 is at most 500 nM. In addition, the Kd on TYK2 JH2 (KINOMEscan KdELECT (Assay A)) is at most 100 nM.
For `CNc1ncc(C#Cc2ccc(OC)cn2)c2cc(NC(=O)[C@H]3C[C@H]3C(F)(F)F)ncc12` (single isomer, unassigned) [Example 747], the IC50 in experiment [1] (Homo sapiens, IFNa-stimulated) was at most 500 nM. For the same compound, the Kd at TYK2 JH2 (KINOMEscan KdELECT (Assay A)) is at most 100 nM.
The corresponding values for `CNc1ncc(C#Cc2cc3ccccn3n2)c2cc(NC(=O)[C@@H]3C[C@@H]3C(F)F)ncc12` (single isomer, unassigned) [Example 754] are at most 500 nM and at most 100 nM.
For the compound `CNc1ncc(C#Cc2cc3ccccn3n2)c2cc(NC(=O)[C@H]3C[C@H]3C(F)F)ncc12` (single isomer, unassigned) [Example 755], the IC50 in experiment [1] (Homo sapiens, IFNa-stimulated) was at most 500 nM. Besides, at TYK2 JH2 (KINOMEscan KdELECT (Assay A)), the Kd was at most 100 nM.
`CNc1ncc(C#Cc2ccc(OCC(C)(C)O)cc2)c2cc(NC(=O)[C@@H]3C[C@@H]3C(F)F)ncc12` (single isomer, unassigned) [Example 756]: the IC50 in experiment [1] (Homo sapiens, IFNa-stimulated) was at most 500 nM. The Kd at TYK2 JH2 (KINOMEscan KdELECT (Assay A)) was at most 100 nM.
On to `CNc1ncc(C#Cc2ccc(OCC(C)(C)O)cc2)c2cc(NC(=O)[C@H]3C[C@H]3C(F)F)ncc12` (single isomer, unassigned) [Example 757], for which, in experiment [1] (Homo sapiens, IFNa-stimulated), the IC50 is at most 500 nM. For the same compound, the Kd on TYK2 JH2 (KINOMEscan KdELECT (Assay A)) is at most 100 nM.
The corresponding values for `CNc1ncc(C#Cc2ccc(OC3CN(C(C)=O)C3)cc2)c2cc(NC(=O)[C@H]3C[C@H]3C(F)F)ncc12` (single isomer, unassigned) [Example 776] are at most 500 nM and at most 100 nM.
Taken in the same sequence, the figures for `CNc1ncc(C#Cc2ccc(OC3CN(C(C)=O)C3)cc2)c2cc(NC(=O)[C@@H]3C[C@@H]3C(F)F)ncc12` (single isomer, unassigned) [Example 777] were at most 500 nM and at most 100 nM.
Taken in the same sequence, the figures for `CNc1ncc(/C=C/c2ccc3c(c2)OC[C@H](COC)O3)c2cc(NC(=O)C3CC3)ncc12` (single isomer, unassigned) [Example 790] were at most 500 nM and at most 100 nM.
For the compound `CNc1ncc(/C=C/c2ccc3c(c2)OC[C@@H](COC)O3)c2cc(NC(=O)C3CC3)ncc12` (single isomer, unassigned) [Example 791], the IC50 in experiment [1] (Homo sapiens, IFNa-stimulated) was at most 500 nM. In addition, on TYK2 JH2 (KINOMEscan KdELECT (Assay A)), the Kd was at most 100 nM.
On to `CNc1ncc(C#Cc2ccc(OC)cn2)c2cc(NC(=O)[C@H]3C[C@H]3CF)ncc12` (single isomer, unassigned) [Example 822], for which the IC50 in experiment [1] (Homo sapiens, IFNa-stimulated) was at most 500 nM. Moreover, the Kd on TYK2 JH2 (KINOMEscan KdELECT (Assay A)) was at most 100 nM.
Taken in the same sequence, the figures for `CNc1ncc(C#Cc2ccc(OC)cn2)c2cc(NC(=O)[C@@H]3C[C@@H]3CF)ncc12` (single isomer, unassigned) [Example 823] were at most 500 nM and at most 100 nM.
In the case of `CNc1ncc(-c2nc3cc(N4CCO[C@H](COC)C4)ccc3o2)c2cc(NC(=O)C3CC3)ncc12` (single isomer, unassigned) [Example 919], the IC50 in experiment [1] (Homo sapiens, IFNa-stimulated) was at most 500 nM. Further, the Kd at TYK2 JH2 (KINOMEscan KdELECT (Assay A)) was at most 100 nM.
Turning to `CNc1ncc(-c2nc3cc(N4CCO[C@@H](COC)C4)ccc3o2)c2cc(NC(=O)C3CC3)ncc12` (single isomer, unassigned) [Example 920], the IC50 in experiment [1] (Homo sapiens, IFNa-stimulated) is at most 500 nM. The Kd on TYK2 JH2 (KINOMEscan KdELECT (Assay A)) is at most 100 nM.
In the case of `CNc1ncc(-c2nc3cc(N4CCO[C@@H](C(F)(F)F)C4)ccc3o2)c2cc(NC(=O)C3CC3)ncc12` (single isomer, unassigned) [Example 922], in experiment [1] (Homo sapiens, IFNa-stimulated), the IC50 was at most 500 nM. At TYK2 JH2 (KINOMEscan KdELECT (Assay A)), the Kd is at most 100 nM.
Regarding `CNc1ncc(-c2nc3cc(N4CCO[C@H](C(F)(F)F)C4)ccc3o2)c2cc(NC(=O)C3CC3)ncc12` (single isomer, unassigned) [Example 923], the IC50 in experiment [1] (Homo sapiens, IFNa-stimulated) is at most 500 nM. For the same compound, at TYK2 JH2 (KINOMEscan KdELECT (Assay A)), the Kd was at most 100 nM.
Turning to `CNc1ncc(-c2nc3cc(N4CCO[C@@H](C(C)(C)O)C4)ccc3o2)c2cc(NC(=O)C3CC3)ncc12` (single isomer, unassigned) [Example 925], in experiment [1] (Homo sapiens, IFNa-stimulated), the IC50 was at most 500 nM. The Kd on TYK2 JH2 (KINOMEscan KdELECT (Assay A)) is at most 100 nM.
The corresponding values for `CNc1ncc(-c2nc3cc(N4CCO[C@H](C(C)(C)O)C4)ccc3o2)c2cc(NC(=O)C3CC3)ncc12` (single isomer, unassigned) [Example 926] are at most 500 nM and at most 100 nM.
For the compound `CNc1ncc(-c2nc3cc(N4CCO[C@H](C(F)F)C4)ccc3o2)c2cc(NC(=O)C3CC3)ncc12` (single isomer, unassigned) [Example 935], the IC50 in experiment [1] (Homo sapiens, IFNa-stimulated) was at most 500 nM. Moreover, the Kd on TYK2 JH2 (KINOMEscan KdELECT (Assay A)) is at most 100 nM.
With `CNc1ncc(-c2nc3cc(N4CCO[C@@H](C(F)F)C4)ccc3o2)c2cc(NC(=O)C3CC3)ncc12` (single isomer, unassigned) [Example 936], the IC50 in experiment [1] (Homo sapiens, IFNa-stimulated) is at most 500 nM. In addition, the Kd at TYK2 JH2 (KINOMEscan KdELECT (Assay A)) was at most 100 nM.
The corresponding values for `CNc1ncc(-c2nc3cc(N4CC[C@@H](F)C4)ccc3o2)c2cc(NC(=O)C3CC3)ncc12` (single isomer, unassigned) [Example 944] are at most 500 nM and at most 100 nM.
In the case of `CNc1ncc(-c2nc3cc(N4CC[C@H](F)C4)ccc3o2)c2cc(NC(=O)C3CC3)ncc12` (single isomer, unassigned) [Example 945], in experiment [1] (Homo sapiens, IFNa-stimulated), the IC50 is at most 500 nM. In addition, the Kd at TYK2 JH2 (KINOMEscan KdELECT (Assay A)) is at most 100 nM.
`CNc1ncc(-c2nc3cc(C4(C)CCCO4)ccc3o2)c2cc(NC(=O)C3CC3)ncc12` (single isomer, unassigned) [Example 949]: in experiment [1] (Homo sapiens, IFNa-stimulated), the IC50 is at most 500 nM. In addition, the Kd on TYK2 JH2 (KINOMEscan KdELECT (Assay A)) was at most 100 nM.
For `CNc1ncc(C#Cc2ccc3c(c2)CC[C@H](CO)O3)c2cc(NC(=O)C3CC3)ncc12` (single isomer, unassigned) [Example 982], in experiment [1] (Homo sapiens, IFNa-stimulated), the IC50 was at most 500 nM. For the same compound, the Kd at TYK2 JH2 (KINOMEscan KdELECT (Assay A)) is at most 100 nM.
Consider `CNc1ncc(C#Cc2ccc3c(c2)CC[C@@H](CO)O3)c2cc(NC(=O)C3CC3)ncc12` (single isomer, unassigned) [Example 983], for which, in experiment [1] (Homo sapiens, IFNa-stimulated), the IC50 is at most 500 nM. For the same compound, the Kd on TYK2 JH2 (KINOMEscan KdELECT (Assay A)) was at most 100 nM.
The corresponding values for `CNc1ncc(C#Cc2ccc3c(c2)CC[C@H](COC)O3)c2cc(NC(=O)C3CC3)ncc12` (single isomer, unassigned) [Example 988] are at most 500 nM and at most 100 nM.
Consider `CNc1ncc(C#Cc2ccc3c(c2)CC[C@@H](COC)O3)c2cc(NC(=O)C3CC3)ncc12` (single isomer, unassigned) [Example 989], for which the IC50 in experiment [1] (Homo sapiens, IFNa-stimulated) was at most 500 nM. The Kd at TYK2 JH2 (KINOMEscan KdELECT (Assay A)) was at most 100 nM.
For `CNc1ncc(-c2nc3ccc(N4CCOCC4)cn3n2)c2cc(NC(=O)[C@@H]3CC3(F)F)ncc12` (single isomer, unassigned) [Example 994], in experiment [1] (Homo sapiens, IFNa-stimulated), the IC50 was at most 500 nM. The Kd on TYK2 JH2 (KINOMEscan KdELECT (Assay A)) was at most 100 nM.
As for `CNc1ncc(-c2nc3ccc(N4CCOC(COC)C4)cn3n2)c2cc(NC(=O)C3CC3)ncc12` (single isomer, unassigned) [Example 1023], the IC50 in experiment [1] (Homo sapiens, IFNa-stimulated pSTAT5 (Tyr694/699)) is at most 500 nM. Also, the Kd on TYK2 JH2 (KINOMEscan KdELECT (Assay A)) is at most 100 nM.
For `CNc1ncc(-c2nc3ccc(N4CCOC(COC)C4)cn3n2)c2cc(NC(=O)C3CC3)ncc12` (single isomer, unassigned) [Example 1024], the IC50 in experiment [1] (IFNa-stimulated pSTAT5 (Tyr694/699)) is at most 500 nM. Also, the Kd at TYK2 JH2 (KINOMEscan KdELECT (Assay A)) was at most 100 nM.

Values taken from patent US20240025906A1 (NEURON23, INC., priority 2022, published 2024).
